Source: patent US11834424B2, “Compounds useful as chaperone-mediated autophagy modulators” (ALBERT EINSTEIN COLLEGE OF MEDICINE, priority 2018, dated 2023)
Read-outs that look alike come from different tables or passages of the source.

Assay: Pharmacokinetics (plasma and brain levels) in ICR (CD-1) mice
Format: in vivo
Settings: male, mouse; for AUC(0-inf): read-out: AUCINF_obs; for MRT inf: read-out: MRTINF_obs
Procedure: ICR (CD-1) male mice were fasted at least three horns and water was available ad libitum before the study. Animals were housed in a controlled environment, target conditions: temperature 18 to 29° C., relative humidity 30 to 70%. Temperature and relative humidity was monitored daily. An electronic time controlled lighting system was used to provide a 12 h light/12 h dark cycle. 3 mice for each indicated time point. ICR (CD-1) mice were administered CA77 at 1 mg/kg i.v. and 30 mg/kg p.o. or CA77.1 at 1 mg/kg i.v. (FIG. 2A) and 10 mg/kg p.o. (FIG. 2B). Three (3) mice were included in each dosage and time group. Mice were sacrificed and plasma and brains were obtained at 0.083, 0.25, 0.50, 1.0, 2.0, 4.0, 8.0, and 24.0 hours after administration and drug concentration determined using LC-MS/MS. Brains were removed, homogenized with a tissue homogenizer in cold 5% w/v BSA in phosphate buffer saline (PBS). A 100 microliter aliquots of brain samples were dispensed in to glass culture tubes and mixed with ethyl acetate (800 μl), vortexed, and centrifuged. The organic layer was transferred to a fresh culture tube, dried under nitrogen, and reconstituted in mobile phase for quantitation. Pharmacokinetic parameters were determined by standard methods using Phoenix WinNonlin 6.3 software.
Tables 3A and 3B provide the concentrations of CA77 in ICR (CD-1) mouse plasma (3A) and mouse brain (3B) following i.v. administration of 1 mg/kg CA77. Table 3C provides the brain/plasma ratio of CA77 following i.v. administration of 1 mg/kg CA77. Shaded cells indicate data not included in statistics due to aberrant value. BLQ=Below Limit of Quantitation.
Tables 5A and 5B provide the concentrations of CA77.1 in ICR (CD-1) mouse plasma (5A) and mouse brain (5B) following i.v. administration of 1 mg/kg CA77.1. Table 5C provides the brain/plasma ratio of CA77.1 following i.v. administration of 1 mg/kg CA77.1. The plasma and brain pharmacokinetic parameters for CA77.1 are provided in Table 6. *—cells contain data not present in the statistics.

[1] = ICR (CD-1), brain, iv, 1 mg/kg, i.v. 1 mg/kg, mouse brain, read-out: Conc. in brain, Mean
[2] = ICR (CD-1), brain, iv, 1 mg/kg, i.v. 1 mg/kg, mouse brain, read-out: Conc. in brain, individual animal
[3] = ICR (CD-1), brain/plasma, iv, 1 mg/kg, i.v. 1 mg/kg, read-out: Brain/Plasma ratio, Mean
[4] = ICR (CD-1), brain/plasma, iv, 1 mg/kg, i.v. 1 mg/kg, read-out: Brain/Plasma ratio, individual animal
[5] = ICR (CD-1), plasma, iv, 1 mg/kg, i.v. 1 mg/kg, mouse plasma, read-out: Conc. in plasma, Mean
[6] = ICR (CD-1), plasma, iv, 1 mg/kg, i.v. 1 mg/kg, mouse plasma, read-out: Conc. in plasma, individual animal
[7] = plasma, iv, i.v. 1 mg/kg, ICR (CD-1) mice
[8] = plasma, po, p.o. 10 mg/kg, ICR (CD-1) mice

CC(=O)Nc1ccc(-c2cnc3cc(Cl)ccc3n2)cc1 [CA77.1, N-(4-(6-chloroquinoxalin-2-yl)phenyl)acetamide]
concentration at 8 h [1]: 4 ng/g | concentration at 8 h [2]: 4.92 ng/g | concentration at 24 h [1]: 0 ng/g | concentration at 24 h [2]: 0 ng/g | Kp at 0.083 h [3]: 5.64 | Kp at 0.083 h [4]: 5.81 | Kp at 0.25 h [3]: 6.19 | Kp at 0.25 h [4]: 6.54 | Kp at 0.5 h (ICR (CD-1), brain/plasma, iv, 1 mg/kg, i.v. 1 mg/kg, 0.50 h, read-out: Brain/Plasma ratio, Mean): 3.92 | Kp at 1 h [3]: 7.52 | Kp at 1 h [4]: 5.44 | Kp at 2 h (ICR (CD-1), brain/plasma, iv, 1 mg/kg, i.v. 1 mg/kg, 2.00 h, read-out: Brain/Plasma ratio, Mean): 6.22 | Kp at 4 h (ICR (CD-1), brain/plasma, iv, 1 mg/kg, i.v. 1 mg/kg, 4.00 h, read-out: Brain/Plasma ratio, Mean): 4 | Kp at 8 h [3]: 2.23 | Kp at 8 h [4]: 1.79 | Kp at 24 h [3]: 0 | Kp at 24 h [4]: 0 | concentration at 0.083 h [5]: 190 ng/mL | concentration at 0.083 h [6]: 177 ng/mL | concentration at 0.25 h [5]: 129 ng/mL | concentration at 0.25 h [6]: 132 ng/mL | concentration at 0.5 h (ICR (CD-1), plasma, iv, 1 mg/kg, i.v. 1 mg/kg, mouse plasma, 0.50 h, read-out: Conc. in plasma, Mean): 276 ng/mL | concentration at 1 h [5]: 91 ng/mL | concentration at 1 h [6]: 110 ng/mL | concentration at 2 h (ICR (CD-1), plasma, iv, 1 mg/kg, i.v. 1 mg/kg, mouse plasma, 2.00 h, read-out: Conc. in plasma, Mean): 46 ng/mL | concentration at 4 h (ICR (CD-1), plasma, iv, 1 mg/kg, i.v. 1 mg/kg, mouse plasma, 4.00 h, read-out: Conc. in plasma, Mean): 6 ng/mL | concentration at 8 h [5]: 2 ng/mL | concentration at 8 h [6]: 2.74 ng/mL | concentration at 24 h [5]: 1 ng/mL | concentration at 24 h [6]: 0.556 ng/mL | AUC(0-t) [7]: 314 ng·h/mL | half-life [7]: 1.39 h | AUC(0-inf) [7]: 315 ng·h/mL | MRT inf [7]: 2 h | bioavailability (plasma, oral, p.o. 10 mg/kg vs i.v. 1 mg/kg, ICR (CD-1) mice): 46.4% | AUC(0-t) [8]: 1460 ng·h/mL | half-life [8]: 2.78 h | AUC(0-inf) [8]: 1460 ng·h/mL | Cmax (plasma, po, p.o. 10 mg/kg, ICR (CD-1) mice, read-out: Cmax): 464 ng/mL | MRT inf [8]: 3 h | Tmax (plasma, po, p.o. 10 mg/kg, ICR (CD-1) mice, read-out: Tmax): 1 h
